Among the data in ChEMBL document CHEMBL5352437, “Identification and immunological evaluation of novel TLR2 agonists through structural optimization of Diprovocim” (Eur J Med Chem, 2022) are EC50 and Activity values, retold here.

SMILES strings stand for the structures. pEC50: −log10 of the molar value. Activity calls are given as the source filed them. The calls are words filed in the database; no cut-off is given here.

Series [1] has as its target T1, Toll-like receptor 2 (Homo sapiens, UniProt O60603). Briefly: Agonist activity at human TLR2 expressed in HEK-Blue hTLR2 cells as SEAP expression incubated for 16 hrs by SEAP-based plate reader analysis. In kind it is cell-based.
The test system of series [2] is THP-1. Briefly: Induction of p38 phosphorylation in human PMA-differentiated THP-1 cells at 100 nM incubated up to 120 mins by Western blotting analysis. In kind it is functional, cell-based. (In general: Immunoblotting shows a protein as a band on a membrane.)
Series [3] has as its target T1, Toll-like receptor 2. Description: Agonist activity at human TLR2 expressed in HEK-Blue hTLR2 cells assessed as activation of TLR2-triggered SEAP signaling at 0.1 uM incubated for 16 hrs in presence of anti-hTLR2 by SEAP-based plate reader analysis. In kind it is cell-based.
Series [4] concerns THP-1. Description: Induction of IL6 production in human PMA-differentiated THP-1 cells supernatant incubated for 4 hrs by ELISA method. In kind it is functional, cell-based. A general note: In an ELISA, binding on a coated surface is turned into a signal by an enzyme label.
In series [5] the test system is THP-1. Briefly: Induction of IL1beta production in human PMA-differentiated THP-1 cells supernatant incubated for 4 hrs by ELISA method. In kind it is functional, cell-based.
Series [6] relates to THP-1. Briefly: Induction of p65 phosphorylation in human PMA-differentiated THP-1 cells at 100 nM incubated up to 120 mins by Western blotting analysis. In kind it is functional, cell-based.
Series [7] has as its target T1, Toll-like receptor 2. Description: Agonist activity at human TLR2 expressed in HEK-Blue hTLR2 cells assessed as activation of TLR2-triggered SEAP signaling at 0.1 uM incubated for 16 hrs in presence of anti-hTLR1 by SEAP-based plate reader analysis. In kind it is cell-based.
Series [8] concerns THP-1. Briefly: Cytotoxicity against human THP1 cells assessed as reduction in cell viability at 100 uM incubated for 24 hrs by CCK8 assay. Format: toxicity, cell-based. The settings on record: thp-1, 24 h. (Tetrazolium assays rely on reduction of a dye to a coloured formazan, in cell work by metabolically active cells.)
Series [9] addresses T1, Toll-like receptor 2. Briefly: Agonist activity at human TLR2 expressed in HEK-Blue hTLR2 cells assessed as activation of TLR2-triggered SEAP signaling up to 10 uM incubated for 16 hrs by SEAP-based plate reader analysis. In kind it is cell-based. Particulars: filed as agonist.
Series [10] has as its system THP-1. Description: Upregulation of MyD88 protein expression in human PMA-differentiated THP-1 cells at 100 nM by Western blotting analysis. In kind it is functional, cell-based. Particulars: time 0-120 min, TDE = time-dependent effect.
Series [11] deals with THP-1. Description: Induction of TNFalpha production in human PMA-differentiated THP-1 cells supernatant incubated for 4 hrs by ELISA method. Format: functional, cell-based.
Series [12] in a line: Cytotoxicity against human HEK-Blue hTLR2 cells assessed as reduction in cell viability at 100 uM incubated for 24 hrs by CCK8 assay. In kind it is toxicity, cell-based. Particulars: hek-blue htlr2, 24 h.
The test system of series [13] is THP-1. Description: Induction of JNK phosphorylation in human PMA-differentiated THP-1 cells at 100 nM incubated up to 120 mins by Western blotting analysis. In kind it is functional, cell-based.

T1 sequence (O60603 whole entry): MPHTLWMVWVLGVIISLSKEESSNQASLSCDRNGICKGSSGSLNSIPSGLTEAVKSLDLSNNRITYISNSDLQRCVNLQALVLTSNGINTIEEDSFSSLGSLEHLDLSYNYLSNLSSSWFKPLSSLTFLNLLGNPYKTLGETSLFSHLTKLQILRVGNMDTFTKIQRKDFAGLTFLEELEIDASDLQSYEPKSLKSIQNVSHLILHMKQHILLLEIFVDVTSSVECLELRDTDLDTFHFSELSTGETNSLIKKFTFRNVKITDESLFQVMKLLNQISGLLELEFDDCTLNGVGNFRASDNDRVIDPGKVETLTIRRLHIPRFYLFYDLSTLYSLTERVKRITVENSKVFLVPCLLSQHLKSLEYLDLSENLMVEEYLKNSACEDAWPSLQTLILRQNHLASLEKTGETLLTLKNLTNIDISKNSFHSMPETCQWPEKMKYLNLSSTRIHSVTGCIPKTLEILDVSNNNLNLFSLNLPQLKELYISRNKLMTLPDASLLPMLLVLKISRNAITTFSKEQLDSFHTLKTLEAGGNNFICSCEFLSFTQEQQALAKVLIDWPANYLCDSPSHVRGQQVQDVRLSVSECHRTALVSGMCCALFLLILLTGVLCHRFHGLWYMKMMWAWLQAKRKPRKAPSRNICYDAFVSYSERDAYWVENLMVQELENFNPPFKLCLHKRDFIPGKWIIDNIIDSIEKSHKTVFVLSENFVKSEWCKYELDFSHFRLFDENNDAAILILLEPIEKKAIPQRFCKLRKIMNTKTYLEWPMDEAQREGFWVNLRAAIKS

`CC1CN(C(=O)c2ccc(C(=O)N3CC(C)[C@H](C(=O)N[C@H]4C[C@@H]4c4ccccc4)C3)cc2)CC1C(=O)N[C@H]1C[C@@H]1c1ccccc1` (stereo not given in full): on Toll-like receptor 2 [1], the pEC50 (usually the EC50 on a negative log10 scale, so that one unit is a factor of ten) was under 5.30.

In turn, `CC(C)CC1CN(C(=O)c2ccc(C(=O)N3CC(CC(C)C)[C@H](C(=O)N[C@H]4C[C@@H]4c4ccccc4)C3)cc2)CC1C(=O)N[C@H]1C[C@@H]1c1ccccc1` (stereo not given in full) had a negative logarithm of the EC50 (pEC50) at Toll-like receptor 2 [1] of under 5.30.

Turning to `CC(C)C1CN(C(=O)c2ccc(C(=O)N3CC(C(C)C)[C@H](C(=O)N[C@H]4C[C@@H]4c4ccccc4)C3)cc2)CC1C(=O)N[C@H]1C[C@@H]1c1ccccc1` (stereo not given in full), the pEC50 at Toll-like receptor 2 [1] was under 5.30.

On to `CCCC[C@H]1CN(C(=O)c2ccc(C(=O)N3C[C@@H](C(=O)N[C@H]4C[C@@H]4c4ccccc4)[C@H](C(=O)N[C@H]4C[C@@H]4c4ccccc4)C3)cc2)C[C@@H]1C(=O)N[C@H]1C[C@@H]1c1ccccc1`, for which the result in the series on THP-1 [2], with THP-1 [6], on Toll-like receptor 2 [9] and in the series with THP-1 [13] was Active. Moreover, the result on Toll-like receptor 2 [3] and at Toll-like receptor 2 [7] was inactive. Also, the Activity entry was “Dose-Dependent Effect” with THP-1 [4]; “Dose-Dependent Effect” in the series on THP-1 [5]; “Non-Toxic” with THP-1 [8]; “Tde” with THP-1 [10]; “Dose-Dependent Effect” in the series on THP-1 [11]; “Non-Toxic” in series [12]. The same compound showed a pEC50 at Toll-like receptor 2 [1] of 7.46.

On to `O=C(N[C@H]1C[C@@H]1c1ccccc1)C1CN(C(=O)c2ccc(C(=O)N3C[C@@H](C(=O)N[C@H]4C[C@@H]4c4ccccc4)[C@H](C(=O)N[C@H]4C[C@@H]4c4ccccc4)C3)cc2)CC1CO` (stereo not given in full), for which the pEC50 at Toll-like receptor 2 [1] is under 5.30.

`CC(C)C1CN(C(=O)c2ccc(C(=O)N3C[C@@H](C(=O)N[C@H]4C[C@@H]4c4ccccc4)[C@H](C(=O)N[C@H]4C[C@@H]4c4ccccc4)C3)cc2)CC1C(=O)N[C@H]1C[C@@H]1c1ccccc1` (stereo not given in full): the pEC50 at Toll-like receptor 2 [1] was 6.15.

For `O=C(N[C@H]1C[C@@H]1c1ccccc1)C1CCN(C(=O)c2ccc(C(=O)N3C[C@@H](C(=O)N[C@H]4C[C@@H]4c4ccccc4)[C@H](C(=O)N[C@H]4C[C@@H]4c4ccccc4)C3)cc2)CC1`, the pEC50 on Toll-like receptor 2 [1] was under 5.30.

Consider `CC(C)CC1CN(C(=O)c2ccc(C(=O)N3C[C@@H](C(=O)N[C@H]4C[C@@H]4c4ccccc4)[C@H](C(=O)N[C@H]4C[C@@H]4c4ccccc4)C3)cc2)CC1C(=O)N[C@H]1C[C@@H]1c1ccccc1` (stereo not given in full), for which the pEC50 at Toll-like receptor 2 [1] was 6.54.

Turning to `CCC1CN(C(=O)c2ccc(C(=O)N3C[C@@H](C(=O)N[C@H]4C[C@@H]4c4ccccc4)[C@H](C(=O)N[C@H]4C[C@@H]4c4ccccc4)C3)cc2)CC1C(=O)N[C@H]1C[C@@H]1c1ccccc1` (stereo not given in full), at Toll-like receptor 2 [1], the pEC50 was 6.29. This pEC50 lies 0.25 log units lower than the previous one.

Regarding `CCC[C@@H]1CN(C(=O)c2ccc(C(=O)N3C[C@@H](C(=O)N[C@H]4C[C@@H]4c4ccccc4)[C@H](C(=O)N[C@H]4C[C@@H]4c4ccccc4)C3)cc2)C[C@H]1C(=O)N[C@H]1C[C@@H]1c1ccccc1`, the pEC50 at Toll-like receptor 2 [1] is 6.75.

For `CC1CN(C(=O)c2ccc(C(=O)N3C[C@@H](C(=O)N[C@H]4C[C@@H]4c4ccccc4)[C@H](C(=O)N[C@H]4C[C@@H]4c4ccccc4)C3)cc2)CC1C(=O)N[C@H]1C[C@@H]1c1ccccc1` (stereo not given in full), the pEC50 on Toll-like receptor 2 [1] was 6.15.

For the compound `CCCC1CN(C(=O)c2ccc(C(=O)N3CC(CCC)[C@H](C(=O)N[C@H]4C[C@@H]4c4ccccc4)C3)cc2)CC1C(=O)N[C@H]1C[C@@H]1c1ccccc1` (stereo not given in full), the pEC50 at Toll-like receptor 2 [1] is under 5.30.

`CCCCC1CN(C(=O)c2ccc(C(=O)N3CC(CCCC)[C@H](C(=O)N[C@H]4C[C@@H]4c4ccccc4)C3)cc2)CC1C(=O)N[C@H]1C[C@@H]1c1ccccc1` (stereo not given in full) showed a pEC50 on Toll-like receptor 2 [1] of 5.82.

`CCCCC1CN(C(=O)c2ccc(C(=O)N3C[C@@H](C(=O)N[C@H]4C[C@@H]4c4ccccc4)[C@H](C(=O)N[C@H]4C[C@@H]4c4ccccc4)C3)cc2)CC1C(=O)N[C@H]1C[C@@H]1c1ccccc1` (stereo not given in full) gave a pEC50 on Toll-like receptor 2 [1] of 7.43.

The compound `O=C(N[C@H]1C[C@@H]1c1ccccc1)C1CN(C(=O)c2ccc(C(=O)N3C[C@@H](C(=O)N[C@H]4C[C@@H]4c4ccccc4)[C@H](C(=O)N[C@H]4C[C@@H]4c4ccccc4)C3)cc2)C1` gave a pEC50 on Toll-like receptor 2 [1] of under 5.30.

As to `CCC1CN(C(=O)c2ccc(C(=O)N3CC(CC)[C@H](C(=O)N[C@H]4C[C@@H]4c4ccccc4)C3)cc2)CC1C(=O)N[C@H]1C[C@@H]1c1ccccc1` (stereo not given in full), at Toll-like receptor 2 [1], the pEC50 was under 5.30.

The compound `CCC[C@H]1CN(C(=O)c2ccc(C(=O)N3C[C@@H](C(=O)N[C@H]4C[C@@H]4c4ccccc4)[C@H](C(=O)N[C@H]4C[C@@H]4c4ccccc4)C3)cc2)C[C@@H]1C(=O)N[C@H]1C[C@@H]1c1ccccc1` had a pEC50 at Toll-like receptor 2 [1] of 7.06.

For `CCCC[C@@H]1CN(C(=O)c2ccc(C(=O)N3C[C@@H](C(=O)N[C@H]4C[C@@H]4c4ccccc4)[C@H](C(=O)N[C@H]4C[C@@H]4c4ccccc4)C3)cc2)C[C@H]1C(=O)N[C@H]1C[C@@H]1c1ccccc1`, the outcome in the series with THP-1 [2], with THP-1 [6], at Toll-like receptor 2 [9] and in the series on THP-1 [13] was Active. Moreover, the result at Toll-like receptor 2 [3] and at Toll-like receptor 2 [7] was inactive. The Activity entry with THP-1 [4] was “Dose-Dependent Effect”; in the series on THP-1 [5], “Dose-Dependent Effect”; in the series with THP-1 [8] it was “Non-Toxic”; with THP-1 [10], “Tde”; in the series with THP-1 [11] it was “Dose-Dependent Effect”; in series [12], “Non-Toxic”. The compound further showed a pEC50 at Toll-like receptor 2 [1] of 7.41.

Consider `O=C(N[C@H]1C[C@@H]1c1ccccc1)[C@H]1CCN(C(=O)c2ccc(C(=O)N3C[C@@H](C(=O)N[C@H]4C[C@@H]4c4ccccc4)[C@H](C(=O)N[C@H]4C[C@@H]4c4ccccc4)C3)cc2)C1`, for which the pEC50 at Toll-like receptor 2 [1] is under 5.30.

`O=C(N[C@H]1C[C@@H]1c1ccccc1)C1CN(C(=O)c2ccc(C(=O)N3C[C@@H](C(=O)N[C@H]4C[C@@H]4c4ccccc4)[C@H](C(=O)N[C@H]4C[C@@H]4c4ccccc4)C3)cc2)CC1CF` (stereo not given in full): at Toll-like receptor 2 [1], the pEC50 was under 5.30.

At Toll-like receptor 2 [1], `CCCC1CN(C(=O)c2ccc(C(=O)N3C[C@@H](C(=O)N[C@H]4C[C@@H]4c4ccccc4)[C@H](C(=O)N[C@H]4C[C@@H]4c4ccccc4)C3)cc2)CC1C(=O)N[C@H]1C[C@@H]1c1ccccc1` (stereo not given in full) gave a pEC50 of 6.97.
